US20250099402A1, “COMPOSITIONS OF ASPIRIN AND KETAMINE” (Vitalis Analgesics LLC, priority 2022, published 2025)
Read-outs that look alike come from different tables or passages of the source.

Assays:
[1] = test system: acute musculoskeletal pain; details: data collected from similar trials, same protocol, scales, center and team, agents and doses per Table 5, FIG. 1, cited from earlier work
[2] = in vivo; cited from earlier work
[3] = cited from earlier work
[4] = cited from earlier work; remark: listed apart in the source
[5] = test system: acute pain due to fracture; details: intravenous, public domain data; cited from earlier work
[6] = Compatibility of ketamine and aspirin with spray coating solvents; details: alcohol solvents for ketamine, aqueous solutions for aspirin
[7] = Ketamine pharmacokinetics and onset of action by route (background); details: ketamine given concurrently through the GI

CN1CC[C@]23c4c5ccc(O)c4O[C@H]2[C@@H](O)C=C[C@H]3[C@H]1C5 [IV morphine, Morphine]
reduction of acute musculoskeletal pain, comparator agents [1]: 5.1 points

NC1(c2ccccc2Cl)CCCCC1=O (centres unmarked) [norketamine]
potency as an anesthetic relative to ketamine [2]: one-third to one-fifth | plasma levels relative to ketamine ([3]; following oral administration of ketamine): three times higher

CN1CC[C@]23c4c5ccc(O)c4O[C@H]2[C@@H](O)C=C[C@H]3[C@H]1C5.O=S(=O)(O)O [oral morphine, Morphine Sulfate]
reduction of acute musculoskeletal pain, comparator agents [1]: about 4 points

N[C@@H]1c2cccnc2[C@H](OC(=O)N2CCC(n3c(=O)[nH]c4ncccc43)CC2)CC[C@H]1c1cccc(F)c1F [rimegepant]
absolute oral bioavailability ([4]; in vivo, po): approximately 64% | eliminated in unchanged form ([4]; in vivo): ~77 % of the dose | time of maximum concentration ([4]; oral administration of NURTEC Orally Disintegrating Tablet): 1.5 h

CC(C)Cc1ccc(C(C)C(=O)O)cc1 (centres unmarked) [oral ibuprofen, Ibuprofen]
reduction of acute musculoskeletal pain, comparator agents [1]: 2 points

CNC1(c2ccccc2Cl)CCCCC1=O (centres unmarked) [ketamine]
reduction of acute musculoskeletal pain, comparator agents ([1]; listed as intranasal (nebulized) ketamine): about 4 points | time of peak pain reduction effect [5]: about 5 mins | elimination half-life ([3]; in vivo): 2 to 3 h | bioavailability, intramuscular injection ([3]; intramuscular): about 93% | bioavailability, IV ([3]; intravenous): about 100% | time to maximal concentrations, orally ([3]; oral): 30 min | bioavailability, oral route ([3]; oral, listed as oral ketamine): 18-20% | stability in spray coating solvent [6]: reacted with alcohol solvents leading to impurities | serum peak concentration later than directly absorbed ketamine [7]: 15 to 20 min
